Source: patent US4242329A, “Bradykinin-inhibiting tripeptide derivatives” (AB Kabi, priority 1978, dated 1980)
Non-standard residues stand in square brackets, D forms with d. Residues, ends and D or L forms follow the SMILES beside them.

System: isolated rat uterus
Assay: Bradykinin-inhibiting activity on isolated rat uterus (contraction at ED70 of bradykinin)
Assay type: cell-based
Conditions: for Inhibition of bradykinin effect, %: against ED70 of bradykinin, isolated rat uterus; for Duration of inhibition: time until bradykinin again gives the original contraction
Experimental: The bradykinin-inhibiting activity of the new tripeptide derivatives is evident from the following disclosure of the biological evaluation on isolated organs. The bradykinin-inhibiting activity is studied on isolated rat uterus. The rats are pretreated subcutanous with 0.2 mg/kg of diethyl stilbestrol, 12-15 hours prior to the experiment. The muscle from uterus which is longitudinally sectioned into halves is arranged in a smooth muscle bath with de Jalon's buffer (de Jalon et al., Farmacother.Acta, Vol. 3, p. 313, 1945), oxygenated with carbogene gas (5% carbon dioxide, 95% oxygen). The temperature is maintained at 35° C. The muscle is stretched with a tension corresponding to 0.5 g. The isometric tension is measured with Grass (FT 03C) force transmitter connected to a Grass polygraph.
Muscle contractions for bradykinin in bath concentrations of 10^-11 -10^-6 M (mole/liter) are registrated, and thereafter the concentration of bradykinin which induces 70% of maximum muscle contraction (ED70) is evaluated. The bradykinin inhibiting activity is then tested with the tripeptide derivatives in bath concentrations of 10^-8, 10^-7, 10^-6 and 10^-5 M, against the ED70 for bradykinin of resp. muscle. For each concentration the tripeptide derivatives are incubated with the uterus tissue 5 and 10 minutes resp. before the addition of bradykinin. The bradykinin-inhibiting activity is expressed as the time in minutes required until bradykinin again gives the original contraction. Each addition of bradykinin is followed by washing with the buffer.

[1] = conc. in test bath 10^-5 mole/liter
[2] = conc. in test bath 10^-6 mole/liter
[3] = conc. in test bath 10^-7 mole/liter
[4] = conc. in test bath 10^-8 mole/liter

| Compound | Inhibition of bradykinin effect, % [1] [%] | Duration of inhibition [1] [min] | Inhibition of bradykinin effect, % [2] [%] | Duration of inhibition [2] [min] | Inhibition of bradykinin effect, % [3] [%] | Duration of inhibition [3] [min] | Inhibition of bradykinin effect, % [4] [%] | Duration of inhibition [4] [min] |
| --- | --- | --- | --- | --- | --- | --- | --- | --- |
| CCCCCCCOC(=O)[C@H](CCCNC(=N)N)NC(=O)[C@H](Cc1ccccc1)NC(=O)[C@H]1CCCN1 [Example I, H-D-Pro-Phe-Arg-O-heptyl] | 100 | 35 | 100 | 15 | 10 | 15 | 10 | 15 |
| CCCCCCCNC(=O)[C@H](CCCNC(=N)N)NC(=O)[C@H](Cc1ccccc1)NC(=O)[C@H]1CCCN1 [Example II, H-D-Pro-Phe-Arg-NH-heptyl] | 100 | 45 | 100 | 30 | 15 | 20 | 15 | 15 |
| N=C(N)NCCC[C@H](NC(=O)[C@H](Cc1ccccc1)NC(=O)[C@H]1CCCN1)C(N)=O [Example III, H-D-Pro-Phe-Arg-NH2] (H-[dP]-Phe-Arg-NH2) | 100 | 50 | 100 | 30 | 15 | 15 | 15 | 15 |
